Like-named read-outs stand apart in the source and are kept apart here. Values belong to the molecule of their own block, whether it stands above or below them.
Target: T1, KDM5A (Homo sapiens, UniProt P29375)
T1 construct: Full length KDM5A enzyme was expressed and purified inhouse; made in house
Test: KDM5 enzyme assay, KDM5A HTRF (Example 463)
Assay type: biochemical

[1] = compounds of Examples 1-432, read-out: Example 463 Assay KDM5A HTRF IC50

T1 sequence (P29375 whole entry): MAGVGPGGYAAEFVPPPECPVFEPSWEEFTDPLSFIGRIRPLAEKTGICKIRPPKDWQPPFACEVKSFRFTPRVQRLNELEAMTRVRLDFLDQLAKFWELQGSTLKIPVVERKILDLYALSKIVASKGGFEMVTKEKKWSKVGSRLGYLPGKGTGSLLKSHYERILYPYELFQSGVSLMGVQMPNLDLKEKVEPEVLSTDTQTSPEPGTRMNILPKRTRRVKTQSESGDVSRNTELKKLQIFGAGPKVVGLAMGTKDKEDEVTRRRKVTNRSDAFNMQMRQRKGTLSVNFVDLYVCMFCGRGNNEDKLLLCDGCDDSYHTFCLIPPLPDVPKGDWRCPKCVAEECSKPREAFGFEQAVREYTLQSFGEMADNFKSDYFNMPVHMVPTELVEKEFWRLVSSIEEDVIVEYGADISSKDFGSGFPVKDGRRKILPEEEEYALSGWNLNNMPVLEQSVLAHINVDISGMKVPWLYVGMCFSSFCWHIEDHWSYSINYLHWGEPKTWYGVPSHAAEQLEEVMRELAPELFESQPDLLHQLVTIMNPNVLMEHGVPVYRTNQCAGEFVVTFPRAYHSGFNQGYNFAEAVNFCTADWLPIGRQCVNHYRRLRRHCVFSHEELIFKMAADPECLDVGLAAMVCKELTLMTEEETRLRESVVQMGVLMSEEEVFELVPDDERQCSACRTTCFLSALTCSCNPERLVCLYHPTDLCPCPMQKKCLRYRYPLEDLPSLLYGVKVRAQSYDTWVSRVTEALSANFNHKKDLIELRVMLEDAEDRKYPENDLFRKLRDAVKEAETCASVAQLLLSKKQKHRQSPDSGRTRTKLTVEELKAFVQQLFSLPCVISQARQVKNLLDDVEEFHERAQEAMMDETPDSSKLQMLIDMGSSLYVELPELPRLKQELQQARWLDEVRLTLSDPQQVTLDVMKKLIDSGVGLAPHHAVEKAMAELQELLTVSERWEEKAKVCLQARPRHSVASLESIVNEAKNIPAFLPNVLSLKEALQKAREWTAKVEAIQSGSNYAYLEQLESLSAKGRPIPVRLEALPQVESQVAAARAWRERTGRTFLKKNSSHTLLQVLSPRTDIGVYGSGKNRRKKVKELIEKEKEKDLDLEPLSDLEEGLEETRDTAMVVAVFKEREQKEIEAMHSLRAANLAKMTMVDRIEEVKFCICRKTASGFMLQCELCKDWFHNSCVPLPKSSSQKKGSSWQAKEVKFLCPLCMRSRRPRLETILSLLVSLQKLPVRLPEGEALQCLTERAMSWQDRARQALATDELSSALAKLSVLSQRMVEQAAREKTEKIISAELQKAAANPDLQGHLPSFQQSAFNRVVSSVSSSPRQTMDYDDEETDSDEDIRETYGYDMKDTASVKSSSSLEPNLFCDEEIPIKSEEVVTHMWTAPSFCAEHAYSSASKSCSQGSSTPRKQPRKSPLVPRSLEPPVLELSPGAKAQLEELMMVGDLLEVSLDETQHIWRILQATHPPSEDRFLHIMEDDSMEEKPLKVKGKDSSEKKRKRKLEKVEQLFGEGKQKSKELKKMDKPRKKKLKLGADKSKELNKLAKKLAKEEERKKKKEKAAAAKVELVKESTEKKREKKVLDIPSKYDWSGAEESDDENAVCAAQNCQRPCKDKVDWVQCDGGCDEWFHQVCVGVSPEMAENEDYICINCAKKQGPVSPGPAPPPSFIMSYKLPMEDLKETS

SMILES: N#Cc1cnn2c(=O)cc(-c3cc(N)cc(-c4ccccc4)c3)[nH]c12 [Example 43, 5-(3-amino-5-phenyl-phenyl)-7-oxo-4H-pyrazolo[1,5-a]pyrimidine-3-carbonitrile]
IC50 [1]: 83 nM

SMILES: CC(=O)Nc1cc(-c2ccccc2)cc(-c2cc(=O)n3ncc(C#N)c3[nH]2)c1 [Example 44, N-[3-(3-Cyano-7-oxo-4H-pyrazolo[1,5-a]pyrimidin-5-yl)-5-phenyl-phenyl]acetamide]
IC50 [1]: 368 nM

SMILES: N#Cc1cnn2c(=O)c(Br)c(-c3ccccc3)[nH]c12 [Example 45, 6-Bromo-7-oxo-5-phenyl-4,7-dihydropyrazolo[1,5-a]pyrimidine-3-carbonitrile]
IC50: 30 nM

SMILES: Cc1[nH]c2c(C#N)cnn2c(=O)c1-c1ccco1 [Example 46, 6-(2-Furyl)-5-methyl-7-oxo-4H-pyrazolo[1,5-a]pyrimidine-3-carbonitrile]
IC50 [1]: 2900 nM

SMILES: CC(C)c1c(Nc2ccccc2)[nH]c2c(C#N)cnn2c1=O [Example 47, 6-isopropyl-7-oxo-5-(phenylamino)-4,7-dihydropyrazolo[1,5-a]pyrimidine-3-carbonitrile]
IC50 [1]: 24 nM

SMILES: CC(C)c1c(N2CCCCC2)[nH]c2c(C#N)cnn2c1=O [Example 48, 6-isopropyl-7-oxo-5-(piperidin-1-yl)-4,7-dihydropyrazolo[1,5-a]pyrimidine-3-carbonitrile]
IC50 [1]: 84 nM

SMILES: CC(C)c1c(Oc2ccccc2)[nH]c2c(C#N)cnn2c1=O [Example 49, 6-isopropyl-7-oxo-5-phenoxy-4,7-dihydropyrazolo[1,5-a]pyrimidine-3-carbonitrile]
IC50 [1]: 25 nM

SMILES: CC(C)c1c(-c2coc3ccccc23)[nH]c2c(C#N)cnn2c1=O [Example 50]
IC50 [1]: 20 nM

SMILES: CC(C)c1c(-c2ccn(-c3ccccc3)n2)[nH]c2c(C#N)cnn2c1=O [Example 51]
IC50 [1]: 8.3 nM

SMILES: CC(C)c1c(-c2ccc(C3CC3)o2)[nH]c2c(C#N)cnn2c1=O [Example 52]
IC50 [1]: 5.8 nM

SMILES: Cc1occc1-c1[nH]c2c(C#N)cnn2c(=O)c1C(C)C [Example 53]
IC50 [1]: 17 nM

SMILES: CC(C)c1c(-c2cnn(-c3ccccc3)c2)[nH]c2c(C#N)cnn2c1=O [Example 54]
IC50 [1]: 6 nM

SMILES: CCn1cc(-c2[nH]c3c(C#N)cnn3c(=O)c2C(C)C)cn1 [Example 55]
IC50 [1]: 11 nM

SMILES: CC(C)c1c(-c2ccc(=O)n(C)c2)[nH]c2c(C#N)cnn2c1=O [Example 56]
IC50 [1]: 16 nM

SMILES: CCc1c(-c2ccco2)[nH]c2c(C#N)cnn2c1=O [Example 57]
IC50 [1]: 5.7 nM

SMILES: CC(C)c1c(-c2cc(C3CC3)co2)[nH]c2c(C#N)cnn2c1=O [Example 58]
IC50 [1]: 7.3 nM

SMILES: CC(C)c1c(-c2ccc(-c3ccccc3)o2)[nH]c2c(C#N)cnn2c1=O [Example 59]
IC50 [1]: 34 nM

SMILES: CC(C)c1c(-c2cnn(C(C)C)c2)[nH]c2c(C#N)cnn2c1=O [Example 60]
IC50 [1]: 19 nM

SMILES: CC(C)c1c(-c2cncnc2)[nH]c2c(C#N)cnn2c1=O [Example 61]
IC50 [1]: 10 nM

SMILES: Cc1cncc(-c2[nH]c3c(C#N)cnn3c(=O)c2C(C)C)c1 [Example 62]
IC50 [1]: 12 nM

SMILES: CC(C)c1c(-c2ccn(C)n2)[nH]c2c(C#N)cnn2c1=O [Example 63]
IC50 [1]: 15 nM

SMILES: CC(C)c1c(-c2ccccc2F)[nH]c2c(C#N)cnn2c1=O [Example 66]
IC50 [1]: 14 nM

SMILES: CC(C)c1c(-c2ccc(C#N)cc2)[nH]c2c(C#N)cnn2c1=O [Example 67]
IC50 [1]: 10 nM

SMILES: COc1ccc(-c2[nH]c3c(C#N)cnn3c(=O)c2C(C)C)cc1 [Example 68]
IC50 [1]: 13 nM

SMILES: CC(C)c1c(-c2ccc(C(F)(F)F)cc2)[nH]c2c(C#N)cnn2c1=O [Example 69]
IC50 [1]: 21 nM

SMILES: CC(C)c1c(-c2ccc(F)cc2)[nH]c2c(C#N)cnn2c1=O [Example 70]
IC50 [1]: 7.8 nM

SMILES: CCc1c(-c2cnn(Cc3ccccc3)c2)[nH]c2c(C#N)cnn2c1=O [Example 71]
IC50 [1]: 4.5 nM

SMILES: CC(C)c1c(-c2cnn(Cc3ccccc3)c2)[nH]c2c(C#N)cnn2c1=O [Example 72]
IC50 [1]: 10 nM

SMILES: CC(C)c1c(-c2cncc(Cl)c2)[nH]c2c(C#N)cnn2c1=O [Example 73]
IC50 [1]: 7.3 nM

SMILES: CC(C)c1c(-c2cncc(F)c2)[nH]c2c(C#N)cnn2c1=O [Example 74]
IC50 [1]: 4 nM

SMILES: C=C(C)c1[nH]c2c(C#N)cnn2c(=O)c1C(C)C [Example 75]
IC50 [1]: 10 nM

SMILES: C=Cc1[nH]c2c(C#N)cnn2c(=O)c1C(C)C [Example 76]
IC50 [1]: 6 nM

SMILES: CC(C)c1c(-c2ccnn2C)[nH]c2c(C#N)cnn2c1=O [Example 77]
IC50 [1]: 12 nM

SMILES: CC(C)c1c(-c2cc(CO)co2)[nH]c2c(C#N)cnn2c1=O [Example 78]
IC50 [1]: 7.7 nM

SMILES: CC(C)c1c(-c2cccc(C#N)c2)[nH]c2c(C#N)cnn2c1=O [Example 79]
IC50 [1]: 13 nM

SMILES: CC(C)c1c(-c2ccn[nH]2)[nH]c2c(C#N)cnn2c1=O [Example 80]
IC50 [1]: 6.8 nM

SMILES: CC(C)c1c(-c2ccco2)[nH]c2c(C#N)cnn2c1=O [Example 81]
IC50 [1]: 6.5 nM

SMILES: CC(C)c1c(-c2cccnc2)[nH]c2c(C#N)cnn2c1=O [Example 91]
IC50: 12 nM

Further lines, results first:

IC50 [1]: 12 nM
SMILES: CC(C)c1c(C2=CCOC2)[nH]c2c(C#N)cnn2c1=O [Example 82]

IC50 [1]: 12 nM
SMILES: CC(C)c1c(-c2ccsc2)[nH]c2c(C#N)cnn2c1=O [Example 83]

IC50 [1]: 8.3 nM
SMILES: CC(C)c1c(-c2cccs2)[nH]c2c(C#N)cnn2c1=O [Example 84]

IC50 [1]: 12 nM
SMILES: CC(C)c1c(-c2cnn(C)c2)[nH]c2c(C#N)cnn2c1=O [Example 85]

IC50 [1]: 4.5 nM
SMILES: Cc1ccc(-c2[nH]c3c(C#N)cnn3c(=O)c2C(C)C)o1 [Example 86]

IC50 [1]: 7.5 nM
SMILES: CC(C)c1c(-c2ccc(CO)o2)[nH]c2c(C#N)cnn2c1=O [Example 87]

IC50 [1]: 14 nM
SMILES: CC(C)c1c(-c2cccc(C(F)(F)F)c2)[nH]c2c(C#N)cnn2c1=O [Example 88]

IC50 [1]: 10 nM
SMILES: COc1cccc(-c2[nH]c3c(C#N)cnn3c(=O)c2C(C)C)c1 [Example 89]

IC50 [1]: 9 nM
SMILES: CC(C)c1c(-c2cccc(F)c2)[nH]c2c(C#N)cnn2c1=O [Example 90]

IC50 [1]: 5.5 nM
SMILES: CCc1c(-c2cn[nH]c2)[nH]c2c(C#N)cnn2c1=O [Example 92]

IC50 [1]: 13 nM
SMILES: CC(C)c1c(-c2cnn(S(C)(=O)=O)c2)[nH]c2c(C#N)cnn2c1=O [Example 93]

IC50 [1]: 12 nM
SMILES: CC(C)c1c(-c2cnn(C3CCCC3)c2)[nH]c2c(C#N)cnn2c1=O [Example 94]

IC50 [1]: 11 nM
SMILES: CC(C)c1c(-c2cnn(Cc3ccsc3)c2)[nH]c2c(C#N)cnn2c1=O [Example 95]

IC50 [1]: 34 nM
SMILES: CC(C)c1c(-c2ccc(Cl)c(C(=O)N3CCOCC3)c2)[nH]c2c(C#N)cnn2c1=O [Example 96]

IC50 [1]: 38 nM
SMILES: CC(C)c1c(-c2ccc(C(=O)NC3CCCC3)c(Cl)c2)[nH]c2c(C#N)cnn2c1=O [Example 97]

IC50 [1]: 37 nM
SMILES: CC(C)c1c(-c2cnn(C(C)(C)CO)c2)[nH]c2c(C#N)cnn2c1=O [Example 98]

IC50 [1]: 6 nM
SMILES: COc1cccc(Cn2cc(-c3[nH]c4c(C#N)cnn4c(=O)c3C(C)C)cn2)c1 [Example 99]

IC50 [1]: 8 nM
SMILES: CC(C)c1c(-c2cnn(Cc3ccncc3)c2)[nH]c2c(C#N)cnn2c1=O [Example 100]

IC50 [1]: 8.5 nM
SMILES: CC(C)c1c(-c2cnn(Cc3ccccc3Cl)c2)[nH]c2c(C#N)cnn2c1=O [Example 101]

IC50 [1]: 10 nM
SMILES: CC(C)c1c(-c2cnn(Cc3cccc(Oc4ccccc4)c3)c2)[nH]c2c(C#N)cnn2c1=O [Example 102]

IC50 [1]: 5.5 nM
SMILES: CC(C)c1c(-c2cnn(Cc3ccc(Oc4ccccc4)cc3)c2)[nH]c2c(C#N)cnn2c1=O [Example 103]

IC50 [1]: 21 nM
SMILES: CC(C)c1c(-c2cnn(C3CCCCC3)c2)[nH]c2c(C#N)cnn2c1=O [Example 104]

IC50 [1]: 8 nM
SMILES: CC(C)c1c(-c2cnn(C(C)c3ccccc3)c2)[nH]c2c(C#N)cnn2c1=O (stereo not shown) [Example 105]

IC50 [1]: 18 nM
SMILES: CC(C)c1c(-c2cnn(C3CCC3)c2)[nH]c2c(C#N)cnn2c1=O [Example 106]

IC50 [1]: 19 nM
SMILES: CCC(C)n1cc(-c2[nH]c3c(C#N)cnn3c(=O)c2C(C)C)cn1 (stereo not shown) [Example 107]

IC50 [1]: 28 nM
SMILES: CC(C)c1c(-c2ccc(F)c(C(=O)N3CCCC3)c2)[nH]c2c(C#N)cnn2c1=O [Example 108]

IC50 [1]: 11 nM
SMILES: CC(C)c1c(-c2ccn(S(=O)(=O)C3CC3)n2)[nH]c2c(C#N)cnn2c1=O [Example 109]

IC50 [1]: 7 nM
SMILES: CC(C)c1c(-c2ccn(C(=O)C3CC3)n2)[nH]c2c(C#N)cnn2c1=O [Example 110]

IC50 [1]: 15 nM
SMILES: CC(C)c1c(-c2cnn(CCC3CC3)c2)[nH]c2c(C#N)cnn2c1=O [Example 111]

IC50 [1]: 330 nM
SMILES: COC(=O)c1c(-c2ccccc2)[nH]c2c(C#N)cnn2c1=O [Example 112]

IC50 [1]: 6 nM
SMILES: CC(C)c1c(-c2cnn(Cc3cccc(-c4ccccc4)c3)c2)[nH]c2c(C#N)cnn2c1=O [Example 113]

IC50 [1]: 5.5 nM
SMILES: CC(C)c1c(-c2cnn(CCc3ccccc3)c2)[nH]c2c(C#N)cnn2c1=O [Example 114]

IC50 [1]: 6 nM
SMILES: COc1ccccc1Cn1cc(-c2[nH]c3c(C#N)cnn3c(=O)c2C(C)C)cn1 [Example 115]

IC50 [1]: 8 nM
SMILES: COc1ccc(Cn2cc(-c3[nH]c4c(C#N)cnn4c(=O)c3C(C)C)cn2)cc1 [Example 116]

IC50 [1]: 14 nM
SMILES: CC(C)c1c(-c2cnn(C(C)(C)C)c2)[nH]c2c(C#N)cnn2c1=O [Example 117]

IC50 [1]: 15 nM
SMILES: Cc1ccc(-c2[nH]c3c(C#N)cnn3c(=O)c2C(C)C)cc1C [Example 118]

IC50 [1]: 19 nM
SMILES: CCOc1ccc(-c2[nH]c3c(C#N)cnn3c(=O)c2C(C)C)cc1Cl [Example 119]

IC50 [1]: 19 nM
SMILES: COc1ccc(-c2[nH]c3c(C#N)cnn3c(=O)c2C(C)C)cc1C [Example 120]

IC50 [1]: 10 nM
SMILES: Cc1nc2cc(-c3[nH]c4c(C#N)cnn4c(=O)c3C(C)C)ccc2s1 [Example 121]

IC50 [1]: 13 nM
SMILES: CC(C)c1c(-c2cnn(Cc3ccccc3Oc3ccccc3)c2)[nH]c2c(C#N)cnn2c1=O [Example 122]

IC50 [1]: 8 nM
SMILES: CC(C)c1c(-c2cnn(S(=O)(=O)c3ccccc3)c2)[nH]c2c(C#N)cnn2c1=O [Example 123]

IC50 [1]: 11 nM
SMILES: CC(C)c1c(-c2cnn(C(=O)c3ccccc3)c2)[nH]c2c(C#N)cnn2c1=O [Example 124]

IC50 [1]: 30 nM
SMILES: CC(C)c1c(-c2cnn(C(c3ccccc3)c3ccccc3)c2)[nH]c2c(C#N)cnn2c1=O [Example 125]

IC50 [1]: 8 nM
SMILES: CC(C)c1c(-c2cnn(Cc3ccccc3-c3ccccc3)c2)[nH]c2c(C#N)cnn2c1=O [Example 126]

From patent US10035801B2, “Pyrazolo compounds and uses thereof” (CONSTELLATION PHARMACEUTICALS, INC., priority 2013, dated 2018)
